Where a name gives a salt, the structure may show the parent alone.
Key:
renal hypertensive rats = assay: blood pressure lowering in renal hypertensive rats (2-kidney, 1-clip Goldblatt model); assay type: in vivo; settings: renal hypertensive rat
Procedure: Finally, the compounds of Formula I were tested in vivo for blood pressure lowering effects in renal hypertensive rats (2-kidney, 1-clip Goldblatt model) according to the method described by S. Sen, et al, in Hypertension 1979;1:427-34 and in Clin. Soc. 1979;57:53-62.
Illustrative of the in vivo antihypertensive activity for compounds of Formula I or Ia is the data for Example 1a. This compound lowers blood pressure by ≥50 mm Hg and is efficacious for more than 24 hours with a single oral dose of 100 mg/kg in the renal hypertensive rat. Furthermore Example 73 lowers blood pressure by ≥30 mm Hg and is efficacious for more than 24 hours with a single oral dose of 30 mg/kg in the renal hypertensive rat.

AT1 receptor = target: T1, AT1 receptor (Rattus norvegicus, UniProt P25095); assay: [^3 H]angiotensin II binding to rat liver membranes (AT1 test); settings: inhibition of [^3 H]angiotensin II binding
T1 construct: rat liver membranes; from tissue; host or cells: rat liver membranes
T1 sequence (P25095 1-359): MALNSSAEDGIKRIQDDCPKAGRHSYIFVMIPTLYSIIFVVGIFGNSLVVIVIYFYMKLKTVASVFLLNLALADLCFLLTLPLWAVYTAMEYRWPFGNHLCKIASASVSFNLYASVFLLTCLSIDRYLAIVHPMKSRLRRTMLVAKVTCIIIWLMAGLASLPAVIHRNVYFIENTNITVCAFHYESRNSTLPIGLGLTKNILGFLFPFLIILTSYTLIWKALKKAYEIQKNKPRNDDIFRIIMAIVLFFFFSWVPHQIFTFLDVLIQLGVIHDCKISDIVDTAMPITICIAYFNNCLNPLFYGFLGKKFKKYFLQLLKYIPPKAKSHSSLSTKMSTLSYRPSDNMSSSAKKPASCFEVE
Summary of the method: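 Inhibition of [^3 H]angiotensin II binding to rat liver membranes, run by the Dudley et al. 1990 method.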

IC50 (AT1 receptor)	SMILES	lowers blood pressure by (renal hypertensive rats; single oral dose of 100 mg/kg)	efficacious for (duration) (renal hypertensive rats; single oral dose of 30 mg/kg)	lowers blood pressure by (renal hypertensive rats; single oral dose of 30 mg/kg)
–	CCCCc1ncc(/C=C2\C(=O)NC(=O)N2CCCC)n1Cc1ccc(C(=O)O)cc1 [Example 1a, (E)-4-[[2-Butyl-5-[(3-butyl-2,5-dioxo-4-imidazolidinylidene)methyl]-1H-imidazol-1-yl]methyl]benzoic acid]	≥ 50 mm Hg	–	–
1.3 nM	CCCCc1ncc(/C=C2/C(=O)N(CCCC)C(=O)N2CCCC)n1Cc1ccc(C(=O)O)cc1 [Example 73, Z-4-[[2-butyl-5-[(1,3-dibutyl-2,5-dioxo-4-imidazolidinylidene)methyl]-1H-imidazol-1-yl]methyl]benzoic acid]	–	more than 24 hours	≥ 30 mm Hg
6.44 nM	CCCCc1ncc(/C=C2/C(=O)N(CCCC)C(=O)N2CCCC(F)(F)F)n1Cc1ccc(C(=O)OC)cc1 [Example 112, Methyl Z-4-[[2-butyl-5-[[1-butyl-2,5-dioxo-3-(4,4,4-trifluorobutyl)-4-imidazolidinylidene]methyl]-1H-imidazol-1-yl]methyl]benzoate dihydrochloride]	–	–	–
18.3 nM	CCCCc1ncc(/C=C2/C(=O)N(CCCC(F)(F)F)C(=O)N2CCCC(F)(F)F)n1Cc1ccc(C(=O)OC)cc1 [Example 113, dihydrochloride]	–	–	–

Reference: patent publication US5436260A, “Angiotensin II receptor antagonists” (Warner-Lambert Company, priority 1994, dated 1995)
